Results from US12358879B2, “Heterocyclic compound” (Takeda Pharmaceutical Company Limited, priority 2019, dated 2025).

Tested on: Skin fibroblasts derived from FA patients (GM4078)
Assay: RSL3-induced cell death inhibitory activity in skin fibroblasts derived from FA patients (ATP, CellTiter-Glo)
Format: cell-based, human
Conditions: 3 μmol/l RSL3, 24 hours
Protocol: The effects of the compounds according to the present disclosure were evaluated according to the literature (M. G. Cotticelli et al, J Pharmacol Exp Ther 2019, 369, 47-54.).
Skin fibroblasts derived from FA patients (Coriell Institute for Medical Research, GM4078) were cultured in a culture medium consisting of DMEM (Thermo Fisher Scientific, 11995-065), 10% fetal bovine serum (Thermo Fisher Scientific, 26140-087), 1% GlutaMAX supplement (Thermo Fisher Scientific, 35050-061) and 1% Penicillin-Streptomycin solution (FUJIFILM Wako Pure Chemical Corporation, 168-23191).
For assay, the fibroblasts in the above culture medium were seeded in a 384-well plate at 1,500 cells per well, and the test compound and 3 μmol/l (final concentration) RSL3 were added to the plate the day after seeding. The concentration of the test compound added to the assay plate was 0.01, 0.1, 1 and 10 μmol/l as 4 points, and DMSO was added as a negative control for the test compound and RSL3. Twenty-four hours after the addition of RSL3/the test compound, CellTiter-Glo Luminescent Cell Viability Assay solution (Promega, G7573) was added to the plate to lyse the cells, and ATP was measured as an index of cell viability by detecting chemiluminescence with a plate reader.
RSL3-induced cell death inhibitory activity of the test compound=((X−C)/(T−C))×100 • X: ATP in the RSL3 addition/the test compound addition group, • C: ATP in the RSL3 addition/the test compound non-addition group, • T: ATP in the RSL3 non-addition/the test compound non-addition group

Structure (SMILES)	RSL3-induced cell death inhibitory activity (%) at each compound concentration (μmol/l) (compound 0.01 μmol/l) [%]	RSL3-induced cell death inhibitory activity (%) at each compound concentration (μmol/l) (compound 0.1 μmol/l) [%]	RSL3-induced cell death inhibitory activity (%) at each compound concentration (μmol/l) (compound 1 μmol/l) [%]	RSL3-induced cell death inhibitory activity (%) at each compound concentration (μmol/l) (compound 10 μmol/l) [%]
COCc1nn(C)cc1Nc1nn(C(C)C)c2cc(C(C)(C)O)ccc12 [Example 85, 2-[3-{[3-(methoxymethyl)-1-methyl-1H-pyrazol-4-yl]amino}-1-(propan-2-yl)-1H-indazol-6-yl]propan-2-ol]	11.4	43.2	68.4	72.6
COCc1nn(C)cc1Nc1nn(C2CCC2)c2ccc(C(C)(C)O)cc12 [Example 88, 2-(1-cyclobutyl-3-{[3-(methoxymethyl)-1-methyl-1H-pyrazol-4-yl]amino}-1H-indazol-5-yl)propan-2-ol]	13.6	61.2	73.0	72.7
